Data on six compounds can be found in ChEMBL document CHEMBL4219140, “First discovery of a potential carbonate prodrug of NNRTI drug candidate RDEA427 with submicromolar inhibitory activity against HIV-1 K103N/Y181C double mutant strain” (Bioorg Med Chem Lett, 2018).

pEC50, pIC50: −log10 of the molar value. Activity calls are given as the source filed them. No cut-off for these calls is given here. A value given as a limit tells only on which side of the number the result lay.

Data set [1] deals with Human immunodeficiency virus 1. Description: Antiviral activity against HIV1 RES056 expressing reverse transcriptase K103N/Y181C double mutant infected in human MT4 cells assessed as protection against virus-induced cytopathic effect after 5 days by MTT assay. The data set is classed as functional, organism-based. Conditions: Human immunodeficiency virus 1, RES056, MT4, 120 h.

Data set [2] can be described thus: Selectivity index, ratio of CC50 for human MT4 cells to EC50 for HIV1 3B expressing wild type reverse transcriptase infected in human MT4 cells. The data set is classed as toxicity, cell-based. Conditions: read-out: Ratio CC50/EC50.
For data set [3], the system named is Human immunodeficiency virus 1. Description: Antiviral activity against HIV1 3B expressing wild type reverse transcriptase infected in human MT4 cells assessed as protection against virus-induced cytopathic effect after 5 days by MTT assay. The data set is classed as functional, organism-based. Conditions: Human immunodeficiency virus 1, 3B, MT4, 120 h.
Data set [4] can be described thus: Selectivity index, ratio of CC50 for human MT4 cells to EC50 for HIV1 RES056 expressing reverse transcriptase K103N/Y181C double mutant. The data set is classed as toxicity. The following applies: read-out: Ratio CC50/EC50.
Data set [5] can be described thus: Cytotoxicity against human MT4 cells after 5 days by MTT assay. The data set is classed as cell-based.
Data set [6] can be described thus: Prodrug conversion in human plasma assessed as RDEA427 formation at 100 uM by LC-MS/MS analysis. The data set is classed as ADME, cell-free. The following applies: TDE = time-dependent effect.
In data set [7] the target is Human immunodeficiency virus type 1 reverse transcriptase (Human immunodeficiency virus 1, UniProt Q72547). Put plainly: Inhibition of recombinant wild-type HIV1 reverse transcriptase p66/p51 RNA-dependent DNA polymerase activity assessed as reduction in biotin-dUTP incorporation using poly(rA)/oligo(dT)16 as template/primer after 40 mins by PicoGreen dye based spectrofluorometric analysis.

Data set [8] in a line: Prodrug conversion in human plasma assessed as RDEA427 formation by measuring remaining prodrug levels at 100 uM measured after 60 mins by LC-MS/MS analysis. The data set is classed as ADME, cell-free. Conditions: 1 h.
The subject of data set [9] is Human immunodeficiency virus 2. Description: Antiviral activity against HIV2 ROD infected in human MT4 cells after 5 days by MTT assay. The data set is classed as functional, organism-based. The following applies: ISOLATE ROD. A general note: Formazan colour is commonly taken as a measure of viable cells.
Data set [10] deals with Human immunodeficiency virus 1. Put plainly: Resistance index, ratio of EC50 for HIV1 RES056 harboring K103N/Y181C double mutant infected in human MT4 cells to EC50 for wild-type HIV1 3B infected in human MT4 cells. The data set is classed as functional.
Data set [11] can be described thus: Prodrug conversion in human plasma assessed as RDEA427 formation by measuring remaining prodrug levels at 100 uM measured after 120 mins by LC-MS/MS analysis. The data set is classed as ADME, cell-free. Conditions: 2 h.
Data set [12] is described as follows: Prodrug conversion in human plasma assessed as RDEA427 formation by measuring remaining prodrug levels at 100 uM measured after 30 mins by LC-MS/MS analysis. The data set is classed as ADME, cell-free. The following applies: 0.5 h.
Data set [13] can be described thus: Prodrug conversion in human plasma assessed as RDEA427 formation by measuring remaining prodrug levels at 100 uM measured after 10 mins by LC-MS/MS analysis. The data set is classed as ADME, cell-free.
A short description of data set [14]: Metabolic stability in human plasma assessed as parent compound remaining at 100 uM after 10 mins by LC-MS/MS analysis. The data set is classed as ADME, cell-free. Conditions: read-out: Stability.
A short description of data set [15]: Metabolic stability in human plasma assessed as parent compound remaining at 100 uM after 60 mins by LC-MS/MS analysis. The data set is classed as ADME, cell-free. The following applies: read-out: Stability.
The nature of data set [16]: Metabolic stability in human plasma assessed as parent compound remaining at 100 uM after 120 mins by LC-MS/MS analysis. The data set is classed as ADME, cell-free. The following applies: read-out: Stability.
A short description of data set [17]: Metabolic stability in human plasma assessed as parent compound remaining at 100 uM after 30 mins by LC-MS/MS analysis. The data set is classed as ADME, cell-free. Conditions: read-out: Stability.

As to `Cc1ccnc2c1NC(=O)c1cccnc1N2C1CC1` [NEVIRAPINE], the pEC50 in [1] is under 4.82; in [3], 6.36. Besides, the results for the selectivity ratio in data set [2] and in data set [4] were over 34 and 1, respectively. The same compound displayed a CC50 at 120 h in data set [5] of over 15000 nM.
`Cc1cc(C#N)cc(C)c1Oc1nc(Nc2ccc(C#N)cc2)nc2c1ccn2COC(=O)OC(C)C`: the pEC50 in [1] was 6.82; in [3] it was 8.26. Also, the selectivity ratio in data set [2] was 190; in data set [4], 7. Also, the Drug metabolism result in data set [6] is listed as “Tde”. In addition, the pIC50 in [7] was 6.58. Besides, the Stability in data set [8] came to 53.3%; in [11], 56.4%; in data set [12] it was 73.9%; in data set [13] it was 87.8%. The outcome in [9] was inactive. Further, in data set [10], the “Ratio EC50” value was 27.3. The CC50 at 120 h in [5] is 1050 nM.
As to `Cc1cc(C#N)cc(C)c1Oc1nc(Nc2ccc(C#N)cc2)nc2[nH]ccc12`, the pEC50 in data set [1] is 7.25; in [3] it was 8.54. In addition, the selectivity ratio was at least 425 in data set [2] and at least 22 in data set [4]. Also, the pIC50 in [7] is 7.80. In addition, the “Ratio EC50” value in [10] was 19.1. For the same compound, the CC50 at 120 h in data set [5] is at least 1240 nM.
Turning to `O=C1Nc2ccc(Cl)cc2[C@@](C#CC2CC2)(C(F)(F)F)O1` [EFAVIRENZ], the pEC50 in data set [1] is 6.85; in data set [3], 8.32. Further, the selectivity ratio in data set [2] was over 1320; in [4] it was over 44. For the same compound, in data set [10], the “Ratio EC50” value was 30. Moreover, the cytotoxic concentration (CC50) at 120 h in data set [5] was over 6340 nM.
Turning to `CC(C)[N+](C)(CCOC(=O)C1c2ccccc2Oc2ccccc21)C(C)C` [PROPANTHELINE], the remaining at 10 min, 100 µM in data set [14] came to 54.8%. The remaining at 1 h, 100 µM in data set [15] worked out at 5.1%. In data set [16], the remaining at 2 h, 100 µM amounted to 0.5%. In addition, the remaining at 0.5 h, 100 µM in [17] stood at 19.4%.
As to `Cc1cc(C#N)cc(C)c1Oc1nc(Nc2ccc(C#N)cc2)nc(N)c1Br` [ETRAVIRINE], the pEC50 is 7.33 in data set [1] and 8.41 in [3]. The selectivity ratio was over 1170 in data set [2] and over 97 in [4]. The “Ratio EC50” value in data set [10] amounted to 12. The CC50 at 120 h in data set [5] is over 4590 nM.

One may read the pEC50 as the EC50 on a negative log10 scale, so that one unit is a factor of ten. The CC50 is the concentration giving 50% cytotoxicity. The low end stands for greater toxicity to the cells, the high end for lower toxicity to the cells. The pIC50 is the IC50 on a negative log10 scale, so that one unit is a factor of ten.
